Laboratory results taken from patent US20210122730A1, “GLUCOCORTICOID RECEPTOR MODULATORS” (ORIC Pharmaceuticals, Inc., priority 2017, published 2021).
pIC50: −log10 of the molar value.

Columns and labels:
[1] = biological target: T1, GR (Homo sapiens, UniProt P04150); test: In Vitro GR Luciferase Reporter Assay (antagonist mode, CHO-K1-GR-MMTV-Luc reporter cells); format: cell-based
T1 construct: expressed in transfected cells; host or cells: CHO-K1
T1 sequence (P04150 1-777): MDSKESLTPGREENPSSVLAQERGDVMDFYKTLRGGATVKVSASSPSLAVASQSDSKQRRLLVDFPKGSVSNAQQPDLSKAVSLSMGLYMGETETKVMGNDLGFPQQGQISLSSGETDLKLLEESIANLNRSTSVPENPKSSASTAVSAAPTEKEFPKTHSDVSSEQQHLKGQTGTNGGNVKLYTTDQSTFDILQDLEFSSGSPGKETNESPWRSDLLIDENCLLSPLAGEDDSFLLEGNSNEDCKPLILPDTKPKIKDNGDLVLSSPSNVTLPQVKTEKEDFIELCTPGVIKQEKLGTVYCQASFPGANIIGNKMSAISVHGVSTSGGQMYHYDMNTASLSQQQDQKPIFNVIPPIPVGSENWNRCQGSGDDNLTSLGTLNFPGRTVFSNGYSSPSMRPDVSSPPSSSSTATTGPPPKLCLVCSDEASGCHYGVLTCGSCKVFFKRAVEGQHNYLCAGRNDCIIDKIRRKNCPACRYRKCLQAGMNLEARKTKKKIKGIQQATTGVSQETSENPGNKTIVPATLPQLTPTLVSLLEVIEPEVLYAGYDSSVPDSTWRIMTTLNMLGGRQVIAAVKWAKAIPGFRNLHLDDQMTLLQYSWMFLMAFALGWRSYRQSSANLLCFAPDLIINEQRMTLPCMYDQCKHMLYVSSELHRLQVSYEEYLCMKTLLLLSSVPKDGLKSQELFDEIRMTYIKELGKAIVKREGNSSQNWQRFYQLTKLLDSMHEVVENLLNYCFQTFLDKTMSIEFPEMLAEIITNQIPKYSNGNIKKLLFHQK
Procedure, shortened: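 CHO-K1-GR-MMTV-Luc cells in phenol red-free DMEM with 10% CSS, stimulated with 10 nM dexamethasone (final) and treated with 8-point 1:5 compound dilutions for about 18-24 h at 37° C. Luciferase measured by OneGlo luminescence; IC50 derived for inhibition of GR activity.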

[2] = biological target: T2, CYP2C8 (Homo sapiens, UniProt P10632); test: CYP Inhibition Assay (CYP2C8, human liver microsomes, paclitaxel substrate); format: in vitro ADME; conditions: pH 7.4; pooled human liver microsomes 0.1 mg/mL, probe substrate paclitaxel
T2 construct: Pooled human microsomes were obtained from Sekisui XenoTech, KS; tissue Sekisui XenoTech, KS; host or cells: pooled human liver microsomes
T2 sequence (P10632 1-490): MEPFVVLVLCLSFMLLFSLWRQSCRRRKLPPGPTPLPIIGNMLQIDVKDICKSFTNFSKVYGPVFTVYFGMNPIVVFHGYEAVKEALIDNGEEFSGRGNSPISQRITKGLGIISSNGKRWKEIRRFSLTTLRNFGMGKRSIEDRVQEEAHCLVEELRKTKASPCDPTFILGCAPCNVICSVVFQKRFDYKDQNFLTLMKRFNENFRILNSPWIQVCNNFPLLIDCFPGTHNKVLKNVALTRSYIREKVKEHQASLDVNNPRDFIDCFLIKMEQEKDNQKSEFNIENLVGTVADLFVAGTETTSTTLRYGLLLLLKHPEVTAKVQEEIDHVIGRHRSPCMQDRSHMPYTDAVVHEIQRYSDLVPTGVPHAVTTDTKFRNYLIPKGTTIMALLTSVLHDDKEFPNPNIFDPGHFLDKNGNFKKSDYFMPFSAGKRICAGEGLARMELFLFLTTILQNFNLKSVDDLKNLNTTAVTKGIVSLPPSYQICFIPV
Description: Example B: CYP Inhibition Assay
Objective: To assess the % inhibition of test compounds against CYP2C8 enzyme in human liver microsomes.
Pooled human microsomes were obtained from Sekisui XenoTech, KS, and were used for in vitro assessment of compound inhibitory potential of the major drug metabolizing human CYP enzymes.
Test compounds were dissolved in DMSO as 10 mM stock solutions and diluted to 200 µM in acetonitrile as working solutions. The total concentrations of DMSO and acetonitrile were 0.02% and 0.5%, respectively, in the assay.
The assay was performed in duplicate in a 96-well plate. The reaction mixture ([…]) containing a final concentration of 0.1 mg/mL pooled human liver microsomes, 50 mM potassium phosphate, pH 7.4 buffer, was re-warmed at 37° C. for 5 minutes. The reaction was initiated with NADPH solution which was at 1 mM final concentration, and carried out for 5 minutes at 37° C. It was terminated by the addition of 3-fold volume of quench solution (1:1 acetonitrile:methanol with 0.1% formic acid and the internal standard of tolbutamide). The sample was vortexed, centrifuged at 4,000 rpm for 15 min at 4° C. The incubation in the presence of vehicle (0.02% DMSO and 0.5% acetonitrile) was used as the enzyme activity control. The analyses of metabolite 6α-hydroxypaclitaxel in supernatant was performed with LC-MS/MS method (Sciex API 4500 Qtrap coupled to a Shimadzu LC-20AD HPLC).
The CYP enzyme activity was determined based on the formation of 6a-hydroxypaclitaxel metabolite. The % inhibition was calculated using this equation: % Inhibition=100×(1−Ainactivator/Avehicle), where Ainactivator is the CYP enzyme activity in the presence of test compound, and Avehicle is the CYP activity in the presence of vehicle.

[3] = antagonist assay with 10 nM Dexamethasone, 18-24 hours

| pIC50 ([1]; antagonist mode, 10 nM Dexamethasone) | inhibition at 5 min [2] [%] | pIC50 [1, 3] | Structure (SMILES) |
| --- | --- | --- | --- |
| ≥ 7.00 | ≤ 25 |  | CN(C(=O)[C@H]1CCC2=Cc3c(cnn3-c3ccc(F)cc3)C[C@]2(C(=O)c2cc(C(F)(F)F)ccn2)C1)c1cnn(C)c1 (single isomer, unassigned) [Example 122] |
|  | 50 to 75 | ≥ 7.00 | CN([C@H]1CCC2=Cc3c(cnn3-c3ccc(F)cc3)C[C@]2(C(=O)c2ccccn2)C1)S(=O)(=O)c1ccc(Cl)cc1 [Example 4, 4-Chloro-N-((4aS,6S)-1-(4-fluorophenyl)-4a-picolinoyl-4,4a,5,6,7,8-hexahydro-1H-benzo[f]indazol-6-yl)-N-methylbenzenesulfonamide] |
|  | 75 to 90 | ≥ 7.00 | CCn1ncc(S(=O)(=O)[C@H]2CCC3=Cc4c(cnn4-c4ccc(F)cc4)C[C@]3(C(=O)c3cc(C(F)(F)F)ccn3)C2)n1 [Example 52, ((4aS,6S)-6-((2-ethyl-2H-1,2,3-triazol-4-yl)sulfonyl)-1-(4-fluorophenyl)-1,4,5,6,7,8-hexahydro-4aH-benzo[f]indazol-4a-yl)(4-(trifluoromethyl)pyridin-2-yl)methanone] |
|  | ≤ 25 | ≥ 7.00 | O=C(c1ccc(C(F)(F)F)cn1)[C@]12Cc3cnn(-c4ccc(F)cc4)c3C=C1CC[C@H](S(=O)(=O)c1ccc(F)cc1)C2 [Example 55, ((4aS,6S)-1-(4-fluorophenyl)-6-((4-fluorophenyl)sulfonyl)-1,4,5,6,7,8-hexahydro-4aH-benzo[f]indazol-4a-yl)(5-(trifluoromethyl)pyridin-2-yl)methanone] |
|  | 75 to 90 | ≥ 7.00 | CC(C)n1ncc(S(=O)(=O)[C@H]2CCC3=Cc4c(cnn4-c4ccc(F)cc4)C[C@]3(C(=O)c3cc(C(F)(F)F)ccn3)C2)n1 [Example 56, ((4aS,6S)-1-(4-fluorophenyl)-6-((2-isopropyl-2H-1,2,3-triazol-4-yl)sulfonyl)-1,4,5,6,7,8-hexahydro-4aH-benzo[f]indazol-4a-yl)(4-(trifluoromethyl)pyridin-2-yl)methanone] |
|  | ≤ 25 | ≥ 7.00 | Cn1cc(S(=O)(=O)[C@H]2CCC3=Cc4c(cnn4-c4ccc(F)cc4)C[C@]3(C(=O)c3ccc(C(F)(F)F)cn3)C2)cn1 [Example 69, ((4aS,6S)-1-(4-fluorophenyl)-6-((1-methyl-1H-pyrazol-4-yl)sulfonyl)-1,4,5,6,7,8-hexahydro-4aH-benzo[f]indazol-4a-yl)(5-(trifluoromethyl)pyridin-2-yl)methanone] |
|  | 25 to 50 | ≥ 7.00 | CN([C@H]1CCC2=Cc3c(cnn3-c3ccc(F)cc3)C[C@]2(C(=O)c2cc(C(F)(F)F)ccn2)C1)S(=O)(=O)c1cnn(C)c1 [Example 81, N-((4aS,6S)-1-(4-fluorophenyl)-4a-(4-(trifluoromethyl)picolinoyl)-4,4a,5,6,7,8-hexahydro-1H-benzo[f]indazol-6-yl)-N,1-dimethyl-1H-pyrazole-4-sulfonamide] |
|  | 50 to 75 | ≥ 7.00 | CN([C@H]1CCC2=Cc3c(cnn3-c3ccc(F)cc3)C[C@]2(C(=O)c2cc(C(F)(F)F)ccn2)C1)S(=O)(=O)c1cnn(C)n1 [Example 90, N-((4aS,6S)-1-(4-fluorophenyl)-4a-(4-(trifluoromethyl)picolinoyl)-4,4a,5,6,7,8-hexahydro-1H-benzo[f]indazol-6-yl)-N,2-dimethyl-2H-1,2,3-triazole-4-sulfonamide] |
|  | 50 to 75 | ≥ 7.00 | CCN([C@H]1CCC2=Cc3c(cnn3-c3ccc(F)cc3)C[C@]2(C(=O)c2cc(C(F)(F)F)ccn2)C1)S(=O)(=O)c1cnn(C)c1 [Example 91, N-ethyl-N-((4aS,6S)-1-(4-fluorophenyl)-4a-(4-(trifluoromethyl)picolinoyl)-4,4a,5,6,7,8-hexahydro-1H-benzo[f]indazol-6-yl)-1-methyl-1H-pyrazole-4-sulfonamide] |
|  | 75 to 90 | ≥ 7.00 | CN([C@H]1CCC2=Cc3c(cnn3-c3ccc(F)cc3)C[C@]2(C(=O)c2ccc(C3CC3)cn2)C1)S(=O)(=O)c1cnn(C)c1 [Example 93, N-((4aS,6S)-4a-(5-cyclopropylpicolinoyl)-1-(4-fluorophenyl)-4,4a,5,6,7,8-hexahydro-1H-benzo[f]indazol-6-yl)-N,1-dimethyl-1H-pyrazole-4-sulfonamide] |
|  | 50 to 75 | ≥ 7.00 | CN([C@H]1CCC2=Cc3c(cnn3-c3ccc(F)cc3)C[C@]2(C(=O)c2cc(C(F)(F)F)ccn2)C1)S(=O)(=O)C1CCOCC1 [Example 94, N-((4aS,6S)-1-(4-fluorophenyl)-4a-(4-(trifluoromethyl)picolinoyl)-4,4a,5,6,7,8-hexahydro-1H-benzo[f]indazol-6-yl)-N-methyltetrahydro-2H-pyran-4-sulfonamide] |
|  | 25 to 50 | ≥ 7.00 | CN([C@H]1CCC2=Cc3c(cnn3-c3ccc(F)cc3)C[C@]2(C(=O)c2cc(C(F)(F)F)ccn2)C1)S(=O)(=O)c1ccc(Cl)cc1 [Example 99, 4-chloro-N-((4aS,6S)-1-(4-fluorophenyl)-4a-(4-(trifluoromethyl)picolinoyl)-4,4a,5,6,7,8-hexahydro-1H-benzo[f]indazol-6-yl)-N-methylbenzenesulfonamide] |
|  | 75 to 90 | ≥ 7.00 | Cn1cc(C(=O)N(C2CC2)[C@H]2CCC3=Cc4c(cnn4-c4ccc(F)cc4)C[C@]3(C(=O)c3cc(C(F)(F)F)ccn3)C2)cn1 [Example 102, N-cyclopropyl-N-((4aS,6S)-1-(4-fluorophenyl)-4a-(4-(trifluoromethyl)picolinoyl)-4,4a,5,6,7,8-hexahydro-1H-benzo[f]indazol-6-yl)-1-methyl-1H-pyrazole-4-carboxamide] |
|  | 50 to 75 | 6.00 to 7.00 | CN([C@H]1CCC2=Cc3c(cnn3-c3ccc(F)cc3)C[C@]2(C(=O)c2ccc(C(F)(F)F)cn2)C1)S(=O)(=O)c1cnn(C)n1 [Example 104, N-((4aS,6S)-1-(4-fluorophenyl)-4a-(5-(trifluoromethyl)picolinoyl)-4,4a,5,6,7,8-hexahydro-1H-benzo[f]indazol-6-yl)-N,2-dimethyl-2H-1,2,3-triazole-4-sulfonamide] |
|  | 75 to 90 |  | Cn1cnc(S(=O)(=O)N(CCF)[C@H]2CCC3=Cc4c(cnn4-c4ccc(F)cc4)C[C@]3(C(=O)c3ncc(C(F)(F)F)s3)C2)n1 [Example 112, N-(2-Fluoroethyl)-N-((4aS,6S)-1-(4-fluorophenyl)-4a-(5-(trifluoromethyl)thiazole-2-carbonyl)-4,4a,5,6,7,8-hexahydro-1H-benzo[f]indazol-6-yl)-1-methyl-1H-1,2,4-triazole-3-sulfonamide] |
